Measured values: patent publication EP1201661A1, “HETEROAROMATIC RING COMPOUNDS” (Sumitomo Pharmaceuticals Company, Limited, priority 1999, dated 2001)

Tested on: adjuvant-induced arthritis
Assay: Inhibition of adjuvant-induced arthritis (hind paw swelling)
Format: in vivo, Male SD rats
Details: 5 consecutive days from day 17 after adjuvant
Excerpt: Inhibition of adjuvant-induced arthritis
Male SD rats were used as test subjects. Heat-kllled Mycobacterium butyricum suspended in liquid paraffin in a concentration of 0.5% was subcutaneously injected into the right hind paw of each rat. After 17 days, animals showing the clear onset of secondary inflammation also in the left hind paw were selected, and each compound of the present invention suspended in a 0.5% methyl cellulose solution was orally administered to the animals for 5 consecutive days. The volume of each hind paw at the completion of the administration was compared with that at the beginning of the administration, and the swelling-inhibitory effect was evaluated by the difference between them.

[1] = oral dose 50 mg/kg, volume at completion vs beginning of administration

SMILES	Increase of edema volume (ml) Injected paw [1]	Increase of edema volume (ml) Non-injected paw [1]	Increase of edema volume (ml) Injected paw (oral dose 25 mg/kg)	Increase of edema volume (ml) Non-injected paw (oral dose 25 mg/kg)
CC(c1cccc(C(=O)c2ccccc2)c1)c1nc(N=C(N(C)C)N2CCOCC2)ns1.Cl (stereo not shown) [Experiment 73, N'-{5-[1-(3-Benzoylphenyl)ethyl]-1,2,4-thiadiazol-3-yl}-N,N-dimethyl-4-morpholinecarboximidamide hydrochloride]	-0.95 mL	-0.78 mL	–	–
CC(c1cccc(C(=O)c2ccccc2)c1)c1n[nH]c(N)n1.Cl (stereo not shown) [Experiment 320, {3-[1-(5-Amino-1H-1,2,4-triazol-3-yl)ethyl]phenyl}(phenyl)methanone hydrochloride]	–	–	-1.20 mL	-0.53 mL
CC(c1ccc(-c2ccccc2)c(F)c1)c1cc(N=C(N)N2CCOCC2)n(C)n1.Cl.Cl (stereo not shown) [Experiment 49, N'-{3-[1-(2-Fluoro[1,1'-biphenyl]-4-yl)ethyl]-1-methyl-1H-pyrazol-5-yl}-4-morpholinecarboximidamide dihydrochloride]	-0.24 mL	-0.17 mL	–	–
CCNC(=Nc1nc(C(C)c2cccc(C(=O)c3ccccc3)c2)n[nH]1)N1CCOCC1.Cl (stereo not shown) [Experiment 75, N'-{3-[1-(3-Benzoylphenyl)ethyl]-1H-1,2,4-triazol-5-yl}-N-ethyl-4-morpholinecarboximidamide hydrochloride]	-1.08 mL	-0.53 mL	–	–
CNC(=Nc1cc(C(C)c2cccc(C(=O)c3ccccc3)c2)ns1)N1CCOCC1.Cl (stereo not shown) [Experiment 1, N'-{3-[1-(3-Benzoylphenyl)ethyl]-5-isothiazolyl}-N-methyl-4-morpholine carboximidamide hydrochloride]	0.12 mL	0.02 mL	–	–
